Laboratory results reported in paper PMC7673237 (ACS infectious diseases, 2020).
≈ marks a conversion by molar mass, not a printed value. Where two headings read alike, the source gives them in different places.

Legend:
E. coli MG1655OXA-48 = test: Bacterial susceptibility; assay type: cell-based; conditions: for MIC: Escherichia coli
OXA-48 = OXA-48 (Klebsiella pneumoniae, UniProt Q6XEC0); test: Inhibition of OXA-48 mediated nitrocefin hydrolysis; assay type: biochemical; conditions: purified OXA-48, nitrocefin substrate, Morrison equation
OXA-10 = OXA-10 (Pseudomonas aeruginosa, UniProt P14489); test: Inhibition assay with nitrocefin as reporter, OXA-10; assay type: biochemical
OXA-58 = OXA-58 (Acinetobacter baumannii, UniProt Q2TR58); test: Inhibition assay with nitrocefin as reporter, OXA-58; assay type: biochemical
E. coli MG1655 = test: Accumulation assay in E. coli; assay type: cell-based; conditions: wild-type E. coli MG1655, 10 minutes at 37°C, LC-MS/MS
OXA-163 = OXA-163 (Klebsiella pneumoniae, UniProt Q6XEC0, DEL214-217/S212D); test: Inhibition assay with nitrocefin as reporter, OXA-163; assay type: biochemical; conditions: read-out: CDD-97 Ki; OXA-163, nitrocefin substrate
OXA-24 = OXA-24 (Acinetobacter baumannii, UniProt Q8RLA6); test: Inhibition assay with nitrocefin as reporter, OXA-24; assay type: biochemical

Structure (SMILES): CC1(C)S[C@@H]2[C@H](NC(=O)[C@H](N)c3ccccc3)C(=O)N2[C@H]1C(=O)O [AMP, ampicillin]
- MIC (E. coli MG1655OXA-48; MG1655OXA48, read-out: AMP MIC, no inhibitor (0 μg/mL)): 512 µg/mL (≈ 1470 µM)

Structure (SMILES): NC(=O)[C@@H]1CC[C@@H]2CN1C(=O)N2OS(=O)(=O)O [Avibactam, avibactam]
- MIC (E. coli MG1655OXA-48; MG1655OXA48, read-out: AMP MIC, with avibactam 0.125 μg/mL): 256 µg/mL
- MIC (E. coli MG1655OXA-48; MG1655OXA48, read-out: AMP MIC, with avibactam 0.25 μg/mL): 128 µg/mL
- MIC (E. coli MG1655OXA-48; MG1655OXA48, read-out: AMP MIC, with avibactam 0.5 μg/mL): 64 µg/mL
- MIC (E. coli MG1655OXA-48; MG1655OXA48, read-out: AMP MIC, with avibactam 1 μg/mL): 32 µg/mL
- MIC (E. coli MG1655OXA-48; MG1655OXA48, read-out: AMP MIC, with avibactam 2 μg/mL): 16 µg/mL
- MIC (E. coli MG1655OXA-48; MG1655OXA48, read-out: AMP MIC, with avibactam 4 μg/mL): 4 µg/mL
- MIC (E. coli MG1655OXA-48; MG1655OXA48, read-out: IMP MIC, with avibactam 0.125 μg/mL): 0.312 µg/mL
- MIC (E. coli MG1655OXA-48; MG1655OXA48, read-out: IMP MIC, with avibactam 0.25 μg/mL): 0.312 µg/mL
- MIC (E. coli MG1655OXA-48; MG1655OXA48, read-out: IMP MIC, with avibactam 0.5 μg/mL): 0.156 µg/mL
- MIC (E. coli MG1655OXA-48; MG1655OXA48, read-out: IMP MIC, with avibactam 1 μg/mL): 0.156 µg/mL
- MIC (E. coli MG1655OXA-48; MG1655OXA48, read-out: IMP MIC, with avibactam 2 μg/mL): 0.156 µg/mL
- MIC (E. coli MG1655OXA-48; MG1655OXA48, read-out: IMP MIC, with avibactam 4 μg/mL): 0.0781 µg/mL
- change of both the AMP and IMP MICs with increasing inhibitor concentration (E. coli MG1655OXA-48; inhibitor up to 4 μg/ml): dose-dependent decrease

Structure (SMILES): CCOc1ccccc1N1CCN(c2ncnc(N3CCC(C(=O)O)CC3)n2)CC1 [CDD-97]
- Ki (OXA-48): 0.53 ± 0.08 µM
- Ki less potent than observed for OXA-48 (OXA-10; OXA-10 vs OXA-48): about 100 fold
- Ki (OXA-10; read-out: CDD-97 Ki, OXA-10, nitrocefin substrate): 61 ± 27 µM
- Ki less potent than observed for OXA-48 (OXA-58; OXA-58 vs OXA-48): about 100 fold
- Ki (OXA-58; read-out: CDD-97 Ki, OXA-58, nitrocefin substrate): 45 ± 0.8 µM
- level in cells lower than the positive control tetracycline (E. coli MG1655): 20 fold
- Ki (OXA-163): 0.44 ± 0.02 µM
- decrease in potency compared to OXA-48 (OXA-24; OXA-24 vs OXA-48): 26 fold
- Ki (OXA-24; read-out: CDD-97 Ki, OXA-24, nitrocefin substrate): 14 ± 1 µM
- AMP MIC (E. coli MG1655OXA-48; with CDD-97 4 μg/mL): 1024 µg/mL
- IMP MIC (E. coli MG1655OXA-48; with CDD-97 4 μg/mL): 0.625 µg/mL
- AMP MIC (E. coli MG1655OXA-48; with CDD-97 8 μg/mL): 512 µg/mL
- IMP MIC (E. coli MG1655OXA-48; with CDD-97 8 μg/mL): 0.3125 µg/mL
- AMP MIC (E. coli MG1655OXA-48; with CDD-97 16 μg/mL): 512 µg/mL
- IMP MIC (E. coli MG1655OXA-48; with CDD-97 16 μg/mL): 0.3125 µg/mL
- AMP MIC (E. coli MG1655OXA-48; with CDD-97 32 μg/mL): 512 µg/mL
- IMP MIC (E. coli MG1655OXA-48; with CDD-97 32 μg/mL): 0.3125 µg/mL
- AMP MIC (E. coli MG1655OXA-48; with CDD-97 64 μg/mL): 512 µg/mL
- IMP MIC (E. coli MG1655OXA-48; with CDD-97 64 μg/mL): 0.3125 µg/mL

Structure (SMILES): C[C@@H](O)[C@H]1C(=O)N2C(C(=O)O)=C(SCCN=CN)C[C@H]12 [IMP, imipenem]
- MIC (E. coli MG1655OXA-48; MG1655OXA48, read-out: IMP MIC, no inhibitor (0 μg/mL)): 0.625 µg/mL (≈ 2.09 µM)
